According to patent US20250345277A1, “Ionizable Liposome, Preparation Thereof, and Application Thereof in Gene Delivery” (MAXIRNA (ZHEJIANG) TECHNOLOGY CO. LTD., priority 2021, published 2025):

How the values were obtained:
[1] = Size and polydispersity index PDI of lipid nanoparticles (Malvern Zetasizer Nano ZS); type: physicochemical; conditions: LNP ionizable lipid/DOPE/cholesterol/DSPE-PEG2000 35/16/46.5/2.5 mol% encapsulating EGFP mRNA; for Particle Size: in nm (unit assumed)
Method: (§1) The ionizable lipid compound of Example 1 was dissolved in ethanol with DOPE, cholesterol and DSPE-PEG2000 (all purchased from AVT (Shanghai) Pharmaceutical Technology Co., Ltd.) at a molar ratio of 35:16:46.5:2.5 to prepare ethanol lipid solution, and enhanced green fluorescent protein (EGFP) mRNAs (Shanghai Maximna Pharmaceutical Engineering Co., Ltd., JN-4201) were diluted in 20 mM citrate buffer (pH=6.1) to obtain mRNA aqueous solution. Ethanol lipid solution and mRNA aqueous solution were mixed at a volume ratio of 1:3 by using a microfluidic device (Micro&Nano (Shanghai) Instrument Technology Co., Ltd., model: INano™ML), LNPs were prepared with a weight ratio of approximately 10:1 between total lipids and mRNAs. The medium was replaced by ultrafiltration, ethanol was removed and volumed with DPBS. Finally, the lipid nanoparticles were filtered through a 0.2 μm sterile filter to obtain a LNP formulation encapsulating eGFP mRNA using ionizable lipid/DOPE/cholesterol/DSPE-PEG2000 (35/16/46.5/2.5 mol %), the concentration of mRNAs being 0.002 mg/mL-0.5 mg/mL.
Using Malvern Zetasizer Nano ZS (Malvern UK), the size and polydispersity index PDI of lipid nanoparticles were measured at […].

[2] = Entrapment efficiency of LNP preparation encapsulating EGFP mRNA; type: physicochemical; conditions: LNP ionizable lipid/DOPE/cholesterol/DSPE-PEG2000 35/16/46.5/2.5 mol% encapsulating EGFP mRNA
Method: as §1, with “mg/mL. […]” for “mg/mL.”

[3] = tested on: DC2.4 cells; experiment: In vitro transfection of DC2.4 cells with EGFP mRNA LNP preparation (flow cytometry); type: cell-based, mouse; conditions: DC2.4 cells; for Cell Viability / Positive Rate (EGFP): EGFP mRNA LNP, 200 ng mRNA per well, flow cytometry; for Fluorescence Intensity: EGFP mRNA expression level, normalized based on the sample with the highest fluorescence intensity
Text: The description is based on peripheral blood mononuclear cells PBMC (Shanghai Oribiotech Co., Ltd.), human peripheral blood leukemia T cell Jurkat (ATCC), tumor infiltrating lymphocyte TIL (isolated from resected tumor tissue of a liver cancer patient, the preparation method refers to CN114763530A), mouse bone marrow-derived dendritic cells DC2.4 (Cell Bank of the Chinese Academy of Sciences), and Chinese hamster ovary cells CHO (ATCC) were used as verified cell lines for liposome transfection. PBMC, Jurkat, and TIL cells grew in suspension, while DC2.4 and CHO cells grew by adherent culture. All the operation steps of cell culture must strictly abide by the prescribed procedures, and sterile reagents is used to perform aseptic operations under a sterile workbench. The main steps are as follows: • 1) Cell recovery: the preserved cell cryopreservation solution was taken out of the −80° C. refrigerator, and was immediately put in a 37° C. water bath for rapid and continuous shaking, and was completely melted within one minute. Fresh medium was added to the 15 mL centrifuge tube in advance, and the cell solution was added to the centrifuge tube in a biological safety cabinet. A centrifuge tube of the same quality was taken and placed symmetrically in a centrifuge, centrifuged at a low speed at 1200 rpm for 5 min. After centrifugation, the supernatant was removed, and an appropriate amount of medium was slowly added along the tube wall. After the cells were evenly dispersed by blowing gently, the cell suspension was pipette and added to the culture bottle prepared in advance. The state and distribution of the cells in the early stage of recovery were observed under a microscope. The culture bottle was placed in a 5% CO2 incubator and incubated at 37° C., and the recovery time was recorded. • 2) Cell subculture: Under the microscope, if the cell density in the field of view reaches 80%-90%, the cells can be subcultured. Adherent cells need to be digested with trypsin. In order to avoid the residual serum in the culture medium to reduce the activity of trypsin, DPBS solution was added to wash once after removing the original culture medium. After remove the DPBS solution, trypsin was added to degrade the protein at the junction between cells. This separates the cells for further culture. The cells were gently shaked evenly and put into the incubator for digestion for 2 min. Immediately after the digestion was completed, an appropriate amount of medium was added to the original petri dish to terminate the digestion. Finally, the cells were carefully blowed off using a pipette and blowed until they are evenly dispersed, and then inoculated and subcultured at a certain ratio according to the experimental requirements. […]
• 1) DC2.4 cells recovery: the frozen DC2.4 cells were taken out from the −80° C. refrigerator, put in a 37° C. water bath to quickly thaw the cells, added to the preheated medium after thawing, centrifuged at 1200 rpm for 5 min, the supernatant was discarded, and an appropriate amount of DMEM medium with 10% FBS was added to resuspend the recovered DC2.4, and placed in a 5% CO2 incubator at 37° C. for activation and culture. • 2) According to the experimental arrangement, DC2.4 cells were plated on a 24-well plate one day in advance for cell transfection. Through cell counting, the number of cells and cell viability were recorded, the cell suspension were taken at 2×10^5 cells per well, then a certain volume of DMEM medium containing 10% FBS was added and mixed evenly, 1 mL of mixture was added to each well for subsequent transfection experiment. • 3) After 24 hours, the medium was gently removed 30 minutes in advance by a pipette, 1 mL DPBS was added to each well for washing and then removed, then 300 μL serum-free Opti-MEM medium was added to each well for subsequent transfection experiments.
Subsequent steps are the same as the transfection protocol for PBMC cells. […]

SMILES: CCCCCCCCCCC(O)CN(CCN(CCN1CCN(C)CC1)CCN(CC(O)CCCCCCCCCC)CC(O)CCCCCCCCCC)CC(O)CCCCCCCCCC (stereo not drawn) [E-C12]
- PDI [1]: 0.133
- Particle Size [1]: 96.9
- Entrapment Efficiency [2]: 95.02%
- Cell Viability [3]: 84.8%
- Positive Rate (EGFP) [3]: 56.4%
- Fluorescence Intensity [3]: 0.69

SMILES: CCCCCCCCCCCCCCC(O)CN(CCN(CCN1CCN(C)CC1)CCN(CC(O)CCCCCCCCCCCCCC)CC(O)CCCCCCCCCCCCCC)CC(O)CCCCCCCCCCCCCC (stereo not drawn) [E-C16]
- PDI [1]: 0.107
- Particle Size [1]: 76.9
- Entrapment Efficiency [2]: 91.51%
- Cell Viability [3]: 94.4%
- Positive Rate (EGFP) [3]: 59.9%
- Fluorescence Intensity [3]: 0.71

SMILES: CCCCCCCCCCC(O)CN(CCOCCN(CCOCCN(CC(O)CCCCCCCCCC)CC(O)CCCCCCCCCC)CCN1CCN(C)CC1)CC(O)CCCCCCCCCC (stereo not drawn) [F-C12]
- PDI [1]: 0.133
- Particle Size [1]: 77.7
- Entrapment Efficiency [2]: 92.31%
- Cell Viability [3]: 87.1%
- Positive Rate (EGFP) [3]: 63.9%
- Fluorescence Intensity [3]: 0.28

SMILES: CCCCCCCCCCCCCCC(O)CN(CCOCCN(CCOCCN(CC(O)CCCCCCCCCCCCCC)CC(O)CCCCCCCCCCCCCC)CCN1CCN(C)CC1)CC(O)CCCCCCCCCCCCCC (stereo not drawn) [F-C16]
- PDI [1]: 0.099
- Particle Size [1]: 91.9
- Entrapment Efficiency [2]: 92.39%
- Cell Viability [3]: 96.8%
- Positive Rate (EGFP) [3]: 60.3%
- Fluorescence Intensity [3]: 0.17

SMILES: CCCCCCCCCCCCCCCCC(O)CN(CCOCCN(CCOCCN(CC(O)CCCCCCCCCCCCCCCC)CC(O)CCCCCCCCCCCCCCCC)CCN1CCN(C)CC1)CC(O)CCCCCCCCCCCCCCCC (stereo not drawn) [F-C18]
- PDI [1]: 0.081
- Particle Size [1]: 77.2
- Entrapment Efficiency [2]: 80.61%
- Cell Viability [3]: 93.5%
- Positive Rate (EGFP) [3]: 61.5%
- Fluorescence Intensity [3]: 0.67

SMILES: CCCCCCCCCCC(O)CN(CCOCCOCCN(CCOCCOCCN(CC(O)CCCCCCCCCC)CC(O)CCCCCCCCCC)CCN1CCN(C)CC1)CC(O)CCCCCCCCCC (stereo not drawn) [G-C12]
- PDI [1]: 0.172
- Particle Size [1]: 89.3
- Entrapment Efficiency [2]: 89.95%
- Cell Viability [3]: 92.9%
- Positive Rate (EGFP) [3]: 83.1%
- Fluorescence Intensity [3]: 0.29

SMILES: CCCCCCCCCCCCCCC(O)CN(CCOCCOCCN(CCOCCOCCN(CC(O)CCCCCCCCCCCCCC)CC(O)CCCCCCCCCCCCCC)CCN1CCN(C)CC1)CC(O)CCCCCCCCCCCCCC (stereo not drawn) [G-C16]
- PDI [1]: 0.102
- Particle Size [1]: 78.2
- Entrapment Efficiency [2]: 85.40%
- Cell Viability [3]: 94.5%
- Positive Rate (EGFP) [3]: 79.6%
- Fluorescence Intensity [3]: 0.54

SMILES: CCCCCCCCCCCCCCCCC(O)CN(CCOCCOCCN(CCOCCOCCN(CC(O)CCCCCCCCCCCCCCCC)CC(O)CCCCCCCCCCCCCCCC)CCN1CCN(C)CC1)CC(O)CCCCCCCCCCCCCCCC (stereo not drawn) [G-C18]
- PDI [1]: 0.195
- Particle Size [1]: 99.8
- Entrapment Efficiency [2]: 80.79%
- Cell Viability [3]: 95.2%
- Positive Rate (EGFP) [3]: 63.9%
- Fluorescence Intensity [3]: 0.63

SMILES: CCCCCCCCCCC(O)CN(CCOCCOCCOCCN(CCOCCOCCOCCN(CC(O)CCCCCCCCCC)CC(O)CCCCCCCCCC)CCN1CCN(C)CC1)CC(O)CCCCCCCCCC (stereo not drawn) [H-C12]
- PDI [1]: 0.136
- Particle Size [1]: 95.9
- Entrapment Efficiency [2]: 94.13%
- Cell Viability [3]: 86.0%
- Positive Rate (EGFP) [3]: 74.3%
- Fluorescence Intensity [3]: 0.78

SMILES: CCCCCCCCCCCCCCC(O)CN(CCOCCOCCOCCN(CCOCCOCCOCCN(CC(O)CCCCCCCCCCCCCC)CC(O)CCCCCCCCCCCCCC)CCN1CCN(C)CC1)CC(O)CCCCCCCCCCCCCC (stereo not drawn) [H-C16]
- PDI [1]: 0.162
- Particle Size [1]: 95.5
- Entrapment Efficiency [2]: 86.56%
- Cell Viability [3]: >99.0%
- Positive Rate (EGFP) [3]: 59.0%
- Fluorescence Intensity [3]: 0.77
